How the values were obtained:
Format in all cases: in vivo, Cydia pomonella
[1] = tested on: male codling moth; assay: Pheromone preference paired-trap test: pheromone alone vs pheromone + HPV; details: for % of pheromone-alone capture (line under HPV + Pheromone value) / Male CM Captured, HPV + Pheromone Trap: ± SEM / Male CM Captured, HPV + Pheromone Trap ± SEM / Average % Change in ♂♂ CM Capture: Table 8; for Average % Change in ♂♂ CM Capture: average of four orchards
Source text: Interaction of synthetic apple and pear odor blends, described above in Table 2, and their effect on the attractancy of synthetic pheromone to codling moth was also studied. For that purpose, series of paired-traps containing pheromone alone or pheromone in combination with synthetic host plant volatile blends were placed in walnut orchards.
Interaction of individual synthetic host plant volatiles or blends on the attractiveness of synthetic male pheromone to male codling moth administered in paired traps with pheromone alone or with pheromone and attractant 10 mg/red septum was also studied.
Pheromone traps (sticky wing traps, Trécé, Inc.,) were hung as pairs: a pheromone only baited-trap vs. a pheromone+HPV blend-baited trap. The two traps of a test pair were attached in close competitive proximity (120 cm apart) on a common hanger bar (PVC pipe). The paired-trap bars were hung 5-6 meters high on the outer canopies of trees. A single pair-trap was hung per tree and different replicate test trees were separated by five rows in a matrix through the orchard. Each pheromone trap was baited with ½ of a commercial pheromone-impregnated rubber septum (Trécé, Inc.). Septa were sectioned by a razor blade. The HPV blends evaporated from their own separate impregnated rubber septa containing 10 mg diluted in hexane/septum).
Tests were conducted in a Harley English walnut orchard. Tests spanned the entire two year seasons April-October with traps checked, males sexed, counted and removed every 2-7 days. Significant effect on pheromone trap capture were judged by paired tests either T-test or a nonparametric test.

[2] = tested on: codling moth; assay: Septa colour and loading dose trap study; set-up: ♂♂ ± SEM / ♀♀ ± SEM: unit not given here
Description: Since there have been differences observed between traps containing gray, white or red septa, a study was performed to determine the significance of the specific septa and their effect on the increase or decrease of attractancy. […]

[3] = tested on: codling moth; assay: Trap capture with purified (2E,4E) and (2E,4Z) 2,4-decadienoic acid esters; details: 1 mg dose/gray septum; four orchards; means of 21 trap checks
Description: In this study, test compounds were highly purified synthetic samples. The purities of the compounds are expressed as percentages. Individual traps were baited with 1 mg dose/gray septum; five replicate blocks in four orchards; means of 21 total trap checks.

[4] = 0.1 mg A, Gray Septa, High (high population conventional orchard)
[5] = 0.1 mg A, Gray Septa, Low (low population organic orchard)
[6] = 0.1 mg A, Red Septa, High (high population conventional orchard)
[7] = 0.1 mg A, Red Septa, Low (low population organic orchard)
[8] = 1.0 mg A, Gray Septa, High (high population conventional orchard)
[9] = 1.0 mg A, Gray Septa, Low (low population organic orchard)
[10] = 1.0 mg A, Red Septa, Low (low population organic orchard)
[11] = 3 mg A, Gray Septa, High (high population conventional orchard)
[12] = 3 mg A, Gray Septa, Low (low population organic orchard)
[13] = 3 mg A, Red Septa, High (high population conventional orchard)
[14] = 3 mg A, Red Septa, Low (low population organic orchard)
[15] = 10 mg A, Gray Septa, High (high population conventional orchard)
[16] = 10 mg A, Gray Septa, Low (low population organic orchard)
[17] = 10 mg A, Red Septa, High (high population conventional orchard)
[18] = 10 mg A, Red Septa, Low (low population organic orchard)
[19] = 20 mg A, Gray Septa, High (high population conventional orchard)
[20] = 20 mg A, Gray Septa, Low (low population organic orchard)
[21] = 20 mg A, Red Septa, High (high population conventional orchard)
[22] = 20 mg A, Red Septa, Low (low population organic orchard)
[23] = Gray Septa, High (high population conventional orchard)
[24] = Gray Septa, Low (low population organic orchard)
[25] = Red Septa, High (high population conventional orchard)
[26] = Red Septa, Low (low population organic orchard)

With `CC(C)CCO` [3-Methyl Butan-1-ol] the “% of pheromone-alone capture (line under HPV + Pheromone value)” value (shortened to “% of pheromone-alone capture”) ([1]; Orchard #1) was 118%, the “Male CM Captured, HPV + Pheromone Trap: ± SEM” value ([1]; Orchard #1, 10 mg/red septum) was 1.29 ± 0.25 ♂♂/trap/night and the “% of pheromone-alone capture” value ([1]; Orchard #2) was 86%. The “Male CM Captured, HPV + Pheromone Trap ± SEM” value ([1]; Orchard #2, 10 mg/red septum) was 1.19 ± 0.22 ♂♂/trap/night, the “% of pheromone-alone capture” value ([1]; Orchard #3) was 95% and the “Male CM Captured, HPV + Pheromone Trap: ± SEM” value ([1]; Orchard #3, 10 mg/red septum) was 2.82 ± 0.56 ♂♂/trap/night. The “% of pheromone-alone capture” value ([1]; Orchard #4) was 115%, the “Male CM Captured, HPV + Pheromone Trap: ± SEM” value ([1]; Orchard #4, 10 mg/red septum) was 2.91 ± 0.49 ♂♂/trap/night and the “Average % Change in ♂♂ CM Capture” value [1] was 104%.

`C=C/C(C)=C/CC=C(C)C` [(E)-β-Ocimene] was tested, and the “% of pheromone-alone capture” value ([1]; Orchard #1) was 135%, the “Male CM Captured, HPV + Pheromone Trap: ± SEM” value ([1]; Orchard #1, 10 mg/red septum) was 1.40 ± 0.25 ♂♂/trap/night and the “% of pheromone-alone capture” value ([1]; Orchard #2) was 114%. The “Male CM Captured, HPV + Pheromone Trap ± SEM” value ([1]; Orchard #2, 10 mg/red septum) was 0.88 ± 0.17 ♂♂/trap/night, the “% of pheromone-alone capture” value ([1]; Orchard #3) was 102% and the “Male CM Captured, HPV + Pheromone Trap: ± SEM” value ([1]; Orchard #3, 10 mg/red septum) was 2.38 ± 0.34 ♂♂/trap/night. The “% of pheromone-alone capture” value ([1]; Orchard #4) was 96% and the “Average % Change in ♂♂ CM Capture” value [1] was 112%.

For `CCCCC/C=C\C=C\C(=O)OCC` [A, ethyl (2E,4Z)-2,4-decadienoate], the “♀♀ ± SEM” value [2, 4] was 1.40 ± 0.52, the “♂♂ ± SEM” value [2, 4] was 5.88 ± 1.80 and the “♀♀ ± SEM” value [2, 5] was 1.05 ± 0.49. For the same compound, the “♂♂ ± SEM” value [2, 5] was 0.97 ± 0.47, the “♀♀ ± SEM” value [2, 6] was 2.76 ± 0.80 and the “♂♂ ± SEM” value [2, 6] was 1.04 ± 0.41. For the same compound, the “♀♀ ± SEM” value [2, 7] was 0.43 ± 0.18, the “♂♂ ± SEM” value [2, 7] was 0.78 ± 0.55 and the “♀♀ ± SEM” value [2, 8] was 4.77 ± 1.34. For the same compound, the “♂♂ ± SEM” value [2, 8] was 3.86 ± 1.55, the “♀♀ ± SEM” value [2, 9] was 0.84 ± 0.30 and the “♂♂ ± SEM” value [2, 9] was 1.13 ± 0.63. For the same compound, the “♀♀ ± SEM” value ([2]; 1.0 mg A, Red Septa, High (high population conventional orchard)) was 4.12 ± 1.37, the “♀♀ ± SEM” value [2, 10] was 1.06 ± 0.49 and the “♂♂ ± SEM” value [2, 10] was 1.38 ± 0.60. For the same compound, the “♀♀ ± SEM” value [2, 11] was 5.25 ± 1.33, the “♂♂ ± SEM” value [2, 11] was 6.20 ± 1.25 and the “♀♀ ± SEM” value [2, 12] was 1.18 ± 0.37. The “♂♂ ± SEM” value [2, 12] was 2.02 ± 0.72, the “♀♀ ± SEM” value [2, 13] was 6.46 ± 1.98 and the “♂♂ ± SEM” value [2, 13] was 4.40 ± 1.28. For the same compound, the “♀♀ ± SEM” value [2, 14] was 0.69 ± 0.26, the “♂♂ ± SEM” value [2, 14] was 0.78 ± 0.35 and the “♀♀ ± SEM” value [2, 15] was 5.77 ± 1.30. For the same compound, the “♂♂ ± SEM” value [2, 15] was 3.59 ± 0.92, the “♀♀ ± SEM” value [2, 16] was 1.28 ± 0.33 and the “♂♂ ± SEM” value [2, 16] was 1.29 ± 0.36. The “♀♀ ± SEM” value [2, 17] was 7.04 ± 1.90, the “♂♂ ± SEM” value [2, 17] was 4.25 ± 0.99 and the “♀♀ ± SEM” value [2, 18] was 0.57 ± 0.15. For the same compound, the “♂♂ ± SEM” value [2, 18] was 0.87 ± 0.41, the “♀♀ ± SEM” value [2, 19] was 3.59 ± 1.46 and the “♂♂ ± SEM” value [2, 19] was 6.14 ± 1.46. The “♀♀ ± SEM” value [2, 20] was 2.83 ± 1.07, the “♂♂ ± SEM” value [2, 20] was 2.97 ± 0.97 and the “♀♀ ± SEM” value [2, 21] was 5.43 ± 1.78. The “♂♂ ± SEM” value [2, 21] was 2.87 ± 0.88, the “♀♀ ± SEM” value [2, 22] was 0.66 ± 0.15 and the “♂♂ ± SEM” value [2, 22] was 0.94 ± 0.20. The “♂♂ ± SEM (50 mg A)” value [2, 23] was 10.15 ± 2.04, the “♂♂ ± SEM (under 50 mg A)” value [2, 23] was 6.18 ± 1.60 and the “♂♂ ± SEM (50 mg A)” value [2, 24] was 1.79 ± 0.69. For the same compound, the “♂♂ ± SEM (under 50 mg A)” value [2, 24] was 2.04 ± 0.83, the “♂♂ ± SEM (50 mg A)” value [2, 25] was 7.30 ± 2.00 and the “♂♂ ± SEM (under 50 mg A)” value [2, 25] was 3.63 ± 0.93. For the same compound, the “♂♂ ± SEM (50 mg A)” value [2, 26] was 0.74 ± 0.24 and the “♂♂ ± SEM (under 50 mg A)” value [2, 26] was 0.57 ± 0.18.

For `CCCCO` [Butan-1-ol], the “% of pheromone-alone capture” value ([1]; Orchard #1) was 101%, the “Male CM Captured, HPV + Pheromone Trap: ± SEM” value ([1]; Orchard #1, 10 mg/red septum) was 0.74 ± 0.17 ♂♂/trap/night and the “% of pheromone-alone capture” value ([1]; Orchard #2) was 117%. The “Male CM Captured, HPV + Pheromone Trap ± SEM” value ([1]; Orchard #2, 10 mg/red septum) was 2.73 ± 0.56 ♂♂/trap/night, the “% of pheromone-alone capture” value ([1]; Orchard #3) was 122% and the “Male CM Captured, HPV + Pheromone Trap: ± SEM” value ([1]; Orchard #3, 10 mg/red septum) was 2.95 ± 0.43 ♂♂/trap/night. The “% of pheromone-alone capture” value ([1]; Orchard #4) was 96%, the “Male CM Captured, HPV + Pheromone Trap: ± SEM” value ([1]; Orchard #4, 10 mg/red septum) was 2.96 ± 0.62 ♂♂/trap/night and the “Average % Change in ♂♂ CM Capture” value [1] was 109%.

For `CCCCC/C=C/C=C/C(=O)OCCCC` [Butyl (2E,4E)-2,4-Decadienoate], the “FEMALE CM Captured: ♂♂/trap/night ± SEM” value [3] was 0 ♀♀/trap/night, the “MALE CM Captured: ♂♂/trap/night ± SEM” value [3] was 0.02 ± 0.02 ♂♂/trap/night and the “Total CM Captured: CM/trap/night ± SEM” value [3] was 0.02 ± 0.02 CM/trap/night.

`CCCCC/C=C\C=C\C(=O)OCC` [Ethyl (2E,4Z)-2,4-Decadienoate, #1 (95.3%)] was tested, and the “MALE CM Captured: ♂♂/trap/night ± SEM” value [3] was 1.67 ± 0.41 ♂♂/trap/night and the “Total CM Captured: CM/trap/night ± SEM” value [3] was 4.49 ± 1.29 CM/trap/night.

`CCCCC/C=C\C=C\C(=O)OCC` [Ethyl (2E,4Z)-2,4-Decadienoate, #2 (88.5%)] was tested, and the “MALE CM Captured: ♂♂/trap/night ± SEM” value [3] was 1.89 ± 0.79 ♂♂/trap/night and the “Total CM Captured: CM/trap/night ± SEM” value [3] was 4.25 ± 1.43 CM/trap/night.

In the case of `C=C1/C=C/[C@H](C(C)C)CC/C(C)=C/CC1` [Germacrene-D], the “% Change (Ph+HPV/Phxl00) in Male CM Capture” value ([1]; Table 9) is reported as 109%, the “Impact of HPV Blend on Pheromone Attractancy to Male CM” value ([1]; Table 9) is reported as “No Effect” and the “Male CM Capture with Pheromone + HPV Blend: ♂♂/trap/night ± SEM” value ([1]; Table 9, 10 mg/red septum) is reported as 0.86 ± 0.19 ♂♂/trap/night.

In the case of `CCCCC/C=C\C=C\C(=O)OCCCCCC` [Hexyl (2E,4Z)-2,4-Decadienoate (91. 6%), Hexyl (2E,4Z)-2,4-Decadienoate], the “FEMALE CM Captured: ♂♂/trap/night ± SEM” value [3] is reported as 0.36 ± 0.18 ♀♀/trap/night, the “MALE CM Captured: ♂♂/trap/night ± SEM” value [3] is reported as 0.21 ± 0.09 ♂♂/trap/night and the “Total CM Captured: CM/trap/night ± SEM” value [3] is reported as 0.57 ± 0.22 CM/trap/night.
